We go through eight compounds from US11191732B2, “Glutaminase inhibitor discovery and nanoparticle-enhanced delivery for cancer therapy” (The Johns Hopkins University, priority 2014, dated 2021).

As usually defined, the IC50 is the midpoint of a concentration-inhibition curve.

Data set [1] deals with glutamine-dependent JHU094 pancreatic patient tumor. Kind of data set: JHU094 pancreatic patient tumor growth in vivo. Set-up: species or system mice. The settings on record: nanoparticle 1.2 mg vs free 0.3125 mg in 100 μl, IV. The text has this: (§1) DMSO solution per dose, as this was is the highest dose that could be administered based on solubility and injection volume limitations.

Data set [2] deals with KRAS-mutant human pancreatic cancer cells. Kind of data set: Growth of glutamine-addicted pancreatic cancer cells with BPTES. It is filed as cell-based. The conditions noted are these: full DMEM media, BPTES dissolved in DMSO.
Experimental: Cells were grown at 37° C. in a 5% (v/v) CO2 and 95% (v/v) air incubator in full DMEM media.
A short description of data set [3]: BPTES levels in pancreatic tumors after intravenous administration (LC-MS/MS). In kind it is in vivo, mice. The settings on record: all time points, limit of detection 10 nM.
Excerpt: BPTES levels were quantified by LC-MS/MS.
as §1

In the next data set the target is GLS (Homo sapiens (Human), UniProt O94925). The data set is described as follows: Inhibition of GLS (established radioactive assay). It is filed as biochemical. The text has this: All new synthetic compounds can be tested for their ability to inhibit GLS using an already established radioactive assay.
Sequence of GLS (O94925 73-669): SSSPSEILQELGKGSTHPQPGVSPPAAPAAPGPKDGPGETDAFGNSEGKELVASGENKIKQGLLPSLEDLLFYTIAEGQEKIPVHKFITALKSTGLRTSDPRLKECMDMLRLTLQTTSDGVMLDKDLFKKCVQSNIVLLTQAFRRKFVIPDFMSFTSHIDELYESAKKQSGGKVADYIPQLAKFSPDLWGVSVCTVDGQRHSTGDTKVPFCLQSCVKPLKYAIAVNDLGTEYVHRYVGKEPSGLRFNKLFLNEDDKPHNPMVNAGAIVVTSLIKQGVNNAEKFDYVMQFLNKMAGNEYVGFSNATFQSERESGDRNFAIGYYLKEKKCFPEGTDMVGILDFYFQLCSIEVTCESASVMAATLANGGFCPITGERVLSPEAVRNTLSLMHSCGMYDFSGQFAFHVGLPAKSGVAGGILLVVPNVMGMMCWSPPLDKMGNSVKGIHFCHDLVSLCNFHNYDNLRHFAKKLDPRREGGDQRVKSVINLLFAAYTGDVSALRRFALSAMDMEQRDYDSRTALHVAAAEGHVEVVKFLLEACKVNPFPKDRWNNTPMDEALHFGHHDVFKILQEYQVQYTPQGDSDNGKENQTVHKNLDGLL
A short description of a further data set: Metabolic stability. The conditions noted are these: oxidation of the sulfide moiety. In kind it is in vitro ADME. An excerpt:
In compound 4, the terminal aminothiadiazole ring was replaced with a secondary amide, presenting a new scaffold for GLS inhibitors.

Data set [4] concerns resected pancreatic cancer. The conditions noted are these: 6 months adjuvant treatment after complete macroscopic resection; cited from earlier work.
Data set [5] has as its system resected pancreatic cancer. The conditions noted are these: six cycles adjuvant, cited from earlier work.
For a further data set, the system named is Panc265 tumor. Kind of data set: Panc265 patient-derived orthotopic pancreatic cancer xenograft tumor growth. In kind it is in vivo. The settings on record: BPTES nanoparticles 1.2 mg every 3 days IV; gemcitabine 625 μg twice per week IP; 4 weeks. For orientation: A xenograft is tissue or cells of one species grown in another, often human tumour cells in immunodeficient mice.

In the case of `O=C(Cc1ccccc1)Nc1nnc(CCSCCc2nnc(NC(=O)Cc3ccccc3)s2)s1` [BPTES, bis-2-[5-(phenylacetamido)-1,3,4-thiadiazol-2-yl]ethyl sulfide], in data set [1], the “effect on tumor growth” value was “no statistical benefit”. Also, in data set [2], the “effect on growth of glutamine-addicted pancreatic cancers” value is on record as “inhibitory to their growth”. The “BPTES level in tumor” value in data set [3] was under 10 nM.

For the compound `Nc1nnc(CCSCCc2nnc(N)s2)s1` [Compound 2], on GLS, the concentration for half-maximal inhibition (IC50) was determined as 100000 nM. Further, the “metabolic stability” value in the data set “Metabolic stability” was “metabolically unstable”. Regarding `Nc1nnc(CCCCc2nnc(NC(=O)Cc3ccccc3)s2)s1` [Compound 3], the IC50 on GLS turned out to be 1900 nM.

Regarding `O=C(CCCCc1nnc(NC(=O)Cc2ccccc2)s1)NCCN1CCCC1` [Compound 4], the half-maximal inhibitory concentration (IC50) at GLS was 4600 nM. The same measure, in the same setting: as for `O=C(Cc1ccccc1)Nc1nnc(CCCCc2nnc(NC(=O)Cc3ccc(O)cc3)s2)s1` [Compound 5], the figure is 80 nM. On to `O=C(O)CCCCC(=O)Nc1nnc(CCCCc2nnc(NC(=O)Cc3ccccc3)s2)s1` [Compound 6], for which the concentration for half-maximal inhibition (IC50) on GLS was 100 nM. With `O=C(O)CCCCCC(=O)Nc1nnc(CCCCc2nnc(NC(=O)Cc3ccccc3)s2)s1` [Compound 7], the IC50 at GLS was determined as 100 nM. With `Nc1ccn([C@@H]2O[C@H](CO)[C@@H](O)C2(F)F)c(=O)n1` [gemcitabine], the “Median OS” value in data set [4] is on record as 23.6 months. In addition, in data set [5] (observation-alone arm 7.7%), the “survival rate at 10 years” value is on record as 12.2%. For the same compound, the “survival rate at 5 years” value in data set [5] (observation-alone arm 10.4%) is listed as 20.7%. Besides, the “reduction in tumor growth” value with Panc265 tumor is 40-50%.
